Measurements: patent EP3414229B1, “QUINOLINONE LYSYL OXIDASE-LIKE 2 INHIBITORS AND USES THEREOF” (Pharmakea, Inc., priority 2016, dated 2017)

Test system: C57B1/6 male mice
Assay: Mouse Oropharyngeal Bleomycin Model of Lung Fibrosis
Assay type: in vivo
Conditions: dosed prophylactically at 60 mg/kg p.o.
Protocol: Example B-3: Mouse Oropharyngeal Bleomycin Model of Lung Fibrosis
Lung fibrosis is induced in C57B1/6 male mice by administering bleomycin (0.1-4 U/kg) via oropharyngeal instillation. Mice are either pretreated with vehicle or test compound (1 day to 1 hour) orally, intraperitoneally, intravenously or subcutaneously before bleomycin installation (prophylactic dosing) or 7-14 days post bleomycin instillation (therapeutic dosing). The route and frequency of dosing are based on previously determined pharmacokinetic properties for the LOXL2 inhibitor in mouse. After bleomycin instillation animals are monitored daily for weight loss and clinical signs for 14-28 days prior to sacrifice. […] For histological examination, lung slices are stained with Masson's trichrome or Picro-Sirius red to measure cross-linked collagen as an indicator of fibrosis and an Ashcroft score of lung fibrotic and inflammatory damage determined. In addition, immunohistochemistry of fibrotic proteins such as a-smooth muscle actin can be recorded. […] After the acid hydrolysis, 25-100 µl of the supernatant is dried down, resuspended in 25 µl water and the hydroxyproline content determined by the addition of 0.5 ml Chloramine T solution (140 mg Chloramine T in 6.5 ml ddH20 + 1 ml n-propanol + 2.5 ml 1M sodium acetate) and incubation at room temperature for 20 min. […]

Compound | efficacy in bleomycin model of lung fibrosis
NCc1cc(=O)c2cc(Br)ccc2[nH]1 [Compound 1-3, 2-(Aminomethyl)-6-bromoquinolin-4(1H)-one] | efficacious

Molecular target: T1, human LOXL2 (Homo sapiens, UniProt Q9Y4K0)
T1 construct: expressed in transfected cells; 10-20X concentrated conditioned media used as the enzyme source
T1 sequence (Q9Y4K0 26-774): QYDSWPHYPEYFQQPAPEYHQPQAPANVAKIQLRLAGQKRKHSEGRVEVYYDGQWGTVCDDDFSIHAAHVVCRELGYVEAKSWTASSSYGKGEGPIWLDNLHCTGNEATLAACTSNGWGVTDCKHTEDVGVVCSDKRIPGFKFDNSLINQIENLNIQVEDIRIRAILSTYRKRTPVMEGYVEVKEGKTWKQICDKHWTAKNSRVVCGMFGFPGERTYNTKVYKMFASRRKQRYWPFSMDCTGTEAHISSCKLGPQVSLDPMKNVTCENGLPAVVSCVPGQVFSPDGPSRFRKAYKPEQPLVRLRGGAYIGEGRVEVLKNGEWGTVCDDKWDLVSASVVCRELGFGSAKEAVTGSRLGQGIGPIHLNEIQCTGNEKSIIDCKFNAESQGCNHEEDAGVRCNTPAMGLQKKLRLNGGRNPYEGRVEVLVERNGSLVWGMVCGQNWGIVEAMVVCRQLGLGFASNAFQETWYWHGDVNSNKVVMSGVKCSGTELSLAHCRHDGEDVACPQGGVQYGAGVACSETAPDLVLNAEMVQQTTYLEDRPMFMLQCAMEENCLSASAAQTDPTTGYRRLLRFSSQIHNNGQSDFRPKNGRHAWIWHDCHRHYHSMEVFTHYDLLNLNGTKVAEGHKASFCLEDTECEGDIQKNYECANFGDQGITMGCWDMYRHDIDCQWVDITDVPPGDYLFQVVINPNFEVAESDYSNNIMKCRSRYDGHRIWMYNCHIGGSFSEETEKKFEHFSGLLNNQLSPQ
Assay: Human LOXL2 Amine Oxidase Activity Assay (Amplex Red fluorescence)
Assay type: biochemical
Conditions: concentrated conditioned media from CHO cells stably expressing human LOXL2; 2h at 37 °C with test compound; DAP substrate
Protocol: Example B-1: Human LOXL2 Amine Oxidase Activity Assay
LOXL2 amine oxidase activity is evaluated by measuring Amplex Red fluorescence using 10-20X concentrated conditioned media from CHO cells stably expressing human LOXL2. To assay for amine oxidase activity, 10 µL of the concentrated conditioned media is incubated with 2 µL of test compound in DMSO and 73 µL Assay Buffer (50 mM Borate Buffer, pH8) for 2h at 37 °C. After the 2h incubation, 5 ul of 10 mM 1,5-Diaminopentane (DAP) diluted in Assay Buffer and 10 µl of Amplex Red Mix (8.5 µl Assay Buffer + 0.5 µl of 10 mM Amplex Red + 1 µl of 500 U/ml Horseradish Peroxidase) are added and the plate mixed and immediately placed on the FlexStaion for fluorescence measurements. Fluorescence is read in kinetic mode every 2 min for 1 hour at excitation = 544 and emission = 590. The amine oxidase activity is calculated from the slope of the linear portion of the curve.

IC50 [nM] | Compound
< 300 | NCc1cc(=O)c2ccccc2[nH]1 [Compound 1-1, 2-(Aminomethyl)quinolin-4(1H)-one]
> 1000 | Cn1c(CN)cc(=O)c2ccccc21 [Compound 1-2, 2-(Aminomethyl)-1-methylquinolin-4(1H)-one]
< 300 | NCc1cc(=O)c2cc(Br)ccc2[nH]1 [Compound 1-3, 2-(Aminomethyl)-6-bromoquinolin-4(1H)-one]
< 300 | C#Cc1ccc2[nH]c(CN)cc(=O)c2c1 [Compound 1-4, 2-(Aminomethyl)-6-ethynylquinolin-4(1H)-one]
< 300 | NCc1cc(=O)c2cc(-c3ccccc3)ccc2[nH]1 [Compound 1-5, 2-(Aminomethyl)-6-phenylquinolin-4(1H)-one]
< 300 | NCc1cc(=O)c2cc(-c3cn(-c4ccccc4)nn3)ccc2[nH]1 [Compound 1-6, 2-(Aminomethyl)-6-(1-phenyl-1H-1,2,3-triazol-4-yl)quinolin-4(1H)-one]
< 300 | NCc1cc(=O)c2cc(C#Cc3ccccc3)ccc2[nH]1 [Compound 1-7, 2-(Aminomethyl)-6-(phenylethynyl)quinolin-4(1H)-one]
< 300 | NCc1cc(=O)c2cc(-n3cccn3)ccc2[nH]1 [Compound 1-8, 2-(Aminomethyl)-6-(1H-pyrazol-1-yl)quinolin-4(1H)-one]
< 300 | COc1ccc2[nH]c(CN)cc(=O)c2c1 [Compound 1-9, 2-(Aminomethyl)-6-methoxyquinolin-4(1H)-one]
< 300 | NCc1cc(=O)c2cc(-c3ccc(F)cc3)ccc2[nH]1 [Compound 1-11, 2-(Aminomethyl)-6-(4-fluorophenyl)quinolin-4(1H)-one]
< 300 | NCc1cc(=O)c2cc(Oc3ccccc3)ccc2[nH]1 [Compound 1-21, 2-(Aminomethyl)-6-phenoxyquinolin-4(1H)-one]
< 300 | NCc1cc(=O)c2cc(-c3cncnc3)ccc2[nH]1 [Compound 1-40, 2-(Aminomethyl)-6-(pyrimidin-5-yl)quinolin-4(1H)-one]
< 300 | Cc1ccc(=O)n(-c2ccc3[nH]c(CN)cc(=O)c3c2)c1 [Compound 1-46, 2-(Aminomethyl)-6-(5-methyl-2-oxopyridin-1(2H)-yl)quinolin-4(1H)-one]
< 300 | Cn1cc(-c2ccc3[nH]c(CN)cc(=O)c3c2)cn1 [Compound 1-47, 2-(Aminomethyl)-6-(1-methyl-1H-pyrazol-4-yl)quinolin-4(1H)-one]
< 300 | NCc1cc(=O)c2cc(-c3cccc4cccnc34)ccc2[nH]1 [Compound 1-65, 2-(Aminomethyl)-[6,8'-biquinolin]-4(1H)-one]
< 300 | NCc1cc(=O)c2cc(-c3cncc(OCc4ccccc4)c3)ccc2[nH]1 [Compound 1-66, 2-(Aminomethyl)-6-(5-(benzyloxy)pyridin-3-yl)quinolin-4(1H)-one]
< 300 | NCc1cc(=O)c2cc(-c3ccc(F)cc3Cl)ccc2[nH]1 [Compound 1-70, 2-(Aminomethyl)-6-(2-chloro-4-fluorophenyl)quinolin-4(1H)-one]
< 300 | COc1ccc(-c2ccc3[nH]c(CN)cc(=O)c3c2)cc1F [Compound 1-72, 2-(Aminomethyl)-6-(3-fluoro-4-methoxyphenyl)quinolin-4(1H)-one]
< 300 | NCc1cc(=O)c2cc(-c3ccc(C(F)(F)F)nc3)ccc2[nH]1 [Compound 1-74, 2-(Aminomethyl)-6-(6-(trifluoromethyl)pyridin-3-yl)quinolin-4(1H)-one]
< 300 | NCc1cc(=O)c2cc(-c3cnc(C(F)(F)F)nc3)ccc2[nH]1 [Compound 1-77, 2-(Aminomethyl)-6-(2-(trifluoromethyl)pyrimidin-5-yl)quinolin-4(1H)-one]
< 300 | COCCOc1ccc2[nH]c(CN)cc(=O)c2c1 [Compound 1-78, 2-(Aminomethyl)-6-(2-methoxyethoxy)quinolin-4(1H)-one]
